Test results reported in US9683025B2, “Methods and compositions for treating cancer and inflammatory diseases” (The Regents of the University of Colorado, A Body Corporate, priority 2013, dated 2017).
“Also recorded” adds a separate entry of the source. Where no end group is shown, it is not given here.

Experiments:
A375 melanoma cells = assay: Cell viability, A375; type: cell-based; conditions: A375, CtBP overexpressing, FIG. 5
Source text: (§1) The Tat peptide alone has no effect on these cells.

3T3 cells = assay: Cell viability, 3T3; type: cell-based, mouse; conditions: 3T3, does not significantly overexpress CtBP, FIG. 5
Source text: as §1

[1] = tested on: H1299 non-small cell lung carcinoma cells; assay: Cell viability, H1299; type: cell-based, human; conditions: H1299, CtBP overexpressing, FIG. 5
Source text: as §1

[2] = tested on: IMQ-based psoriasis model; assay: IMQ-based psoriasis model; type: in vivo, mouse; conditions: for resistance to IMQ-induction of psoriasis: treated mice versus PBS control
Experimental: To elucidate the molecular mechanisms for the Pep1-E1A blocker, H&E and immunostaining for proliferative and inflammatory markers was performed.

[3] = tested on: IMQ-based psoriasis model; assay: IMQ-based psoriasis model; type: in vivo, mouse; conditions: FIG. 15B

Question: Which cell viability (A375 melanoma cells) does the source give for “GRKKRRQRRRPPQ [Tat, cell penetrating peptide alone, control, reference compound]” here?
Answer: The cell viability was “no effect”.

Question: And the cell viability (3T3 cells)?
Answer: Its cell viability is “no effect”.

Question: And the cell viability [1]?
Answer: The cell viability was “no effect”.

Question: With “KETWWETWWTEWSQPKKKRKVLEEPGQPLDLSCKRPR [Pep1-E1A]” as the sequence, how does the psoriasis-like phenotype ([2]; applied on the skin (data not shown)) read?
Answer: Its psoriasis-like phenotype is “largely reduced”.

Question: And the “IMQ-induced epithelial hyperplasia and inflammatory cell infiltration in the stroma (H&E)” value ([2]; compared to PBS-treated skin, FIG. 7A)?
Answer: Its value is “decreases”.

Question: What about the “BrdU incorporation (proliferation)” value ([2]; immunostaining, FIG. 7B) of the same sequence?
Answer: The value was “largely reduced; also recorded: decreased”.

Question: And the “CD45 staining (inflammation)” value ([2]; immunostaining, FIG. 7B)?
Answer: Its value is “largely prevented; also recorded: decreased”.

Question: And the psoriasis-like phenotype ([2]; injected subcutaneously, FIG. 7)?
Answer: The psoriasis-like phenotype was “largely reduced”.

Question: And the “resistance to IMQ-induction of psoriasis” value [2]?
Answer: The value was “showed resistance”.

Question: What about the “erythema, thickening and scaling (cumulative score)” value ([3]; versus PBS) of the same sequence?
Answer: Its value is “Reduction”.

Question: For “GRKKRRQRRRPPQGGEQTVPVDLSVARPRGL (also: conjugated to FITC) [Tat-E1A peptide]”, which “resistance to IMQ-induction of psoriasis” value [2] is on record?
Answer: The value was “showed resistance”.

Question: And the psoriasis-like phenotype ([3]; Example 12, subcutaneously applied on the skin)?
Answer: The psoriasis-like phenotype was “significantly reduced”.
